Experiment [1] addresses APAO (N1-acetylpolyamine oxidase) (Homo sapiens, UniProt Q6QHF9). The experiment is described as follows: luminol/HRP chemiluminescence assay of H2O2 with purified recombinant enzyme. It counts as biochemical.
Experiment [2] addresses SMO (spermine oxidase) (Homo sapiens, UniProt Q9NWM0). Described as above. It is filed as biochemical.

Drawing on PMC6567099 (Journal of Enzyme Inhibition and Medicinal Chemistry, 2019), this text covers IC50 for one compound.

Each structure is given as a SMILES string.

Sequence of SMO (spermine oxidase) (Q9NWM0 whole entry): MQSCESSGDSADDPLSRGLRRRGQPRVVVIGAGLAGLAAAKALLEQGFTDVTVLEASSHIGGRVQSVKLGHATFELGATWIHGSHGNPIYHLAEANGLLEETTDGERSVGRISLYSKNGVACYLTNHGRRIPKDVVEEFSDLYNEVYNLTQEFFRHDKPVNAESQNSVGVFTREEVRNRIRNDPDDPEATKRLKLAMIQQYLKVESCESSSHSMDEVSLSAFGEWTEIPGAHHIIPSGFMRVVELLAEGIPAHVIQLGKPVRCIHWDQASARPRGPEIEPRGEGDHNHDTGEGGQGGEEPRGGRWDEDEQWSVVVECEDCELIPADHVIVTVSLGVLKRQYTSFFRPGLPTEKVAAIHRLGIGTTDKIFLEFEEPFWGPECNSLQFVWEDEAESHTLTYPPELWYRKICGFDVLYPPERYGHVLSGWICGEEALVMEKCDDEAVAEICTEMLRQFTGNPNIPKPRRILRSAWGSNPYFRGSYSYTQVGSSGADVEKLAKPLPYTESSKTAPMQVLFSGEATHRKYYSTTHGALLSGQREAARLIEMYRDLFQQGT
Sequence of APAO (N1-acetylpolyamine oxidase) (Q6QHF9 whole entry): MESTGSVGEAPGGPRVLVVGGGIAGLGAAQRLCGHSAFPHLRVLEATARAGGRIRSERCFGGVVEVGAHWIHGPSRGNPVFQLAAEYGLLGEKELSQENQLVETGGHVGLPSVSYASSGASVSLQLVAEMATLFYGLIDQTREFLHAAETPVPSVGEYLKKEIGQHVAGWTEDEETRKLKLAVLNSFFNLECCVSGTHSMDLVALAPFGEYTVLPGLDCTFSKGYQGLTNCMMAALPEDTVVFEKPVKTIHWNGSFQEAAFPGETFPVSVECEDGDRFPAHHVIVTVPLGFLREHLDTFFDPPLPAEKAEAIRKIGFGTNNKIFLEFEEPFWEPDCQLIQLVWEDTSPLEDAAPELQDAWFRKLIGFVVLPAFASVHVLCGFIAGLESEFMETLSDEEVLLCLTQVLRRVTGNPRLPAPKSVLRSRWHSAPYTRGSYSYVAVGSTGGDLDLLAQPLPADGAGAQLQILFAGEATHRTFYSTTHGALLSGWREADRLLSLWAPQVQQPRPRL

For the compound `CN(C)CCCNCCCNC(=O)c1cccc2cccnc12` [SI-4650, N-(3-{[3-(dimethylamino)propyl]amino}propyl)-8-quinolinecarboxamide], the half-inhibitory concentration (IC50) in experiment [1] turned out to be 35.4 ± 0.26 µM; in experiment [2], 381.8 ± 0.17 µM.
